Two molecules from article PMC6662683, “Identification of the Catechin Uptake Transporter Responsible for Intestinal Absorption of Epigallocatechin Gallate in Mice” (Scientific Reports, 2019) can be followed below.

The target in data set [1] is T1, diastrophic dysplasia sulfate transporter (DTDST) (Mus musculus, UniProt Q62273).
T1 construct: gene Slc26a2; full open reading frame from mouse ileal epithelial cDNA, C-terminal FLAG tag, stably expressed in CHO-K1 cells (pcDNA3.1(+))
T1 sequence (Q62273 1-739): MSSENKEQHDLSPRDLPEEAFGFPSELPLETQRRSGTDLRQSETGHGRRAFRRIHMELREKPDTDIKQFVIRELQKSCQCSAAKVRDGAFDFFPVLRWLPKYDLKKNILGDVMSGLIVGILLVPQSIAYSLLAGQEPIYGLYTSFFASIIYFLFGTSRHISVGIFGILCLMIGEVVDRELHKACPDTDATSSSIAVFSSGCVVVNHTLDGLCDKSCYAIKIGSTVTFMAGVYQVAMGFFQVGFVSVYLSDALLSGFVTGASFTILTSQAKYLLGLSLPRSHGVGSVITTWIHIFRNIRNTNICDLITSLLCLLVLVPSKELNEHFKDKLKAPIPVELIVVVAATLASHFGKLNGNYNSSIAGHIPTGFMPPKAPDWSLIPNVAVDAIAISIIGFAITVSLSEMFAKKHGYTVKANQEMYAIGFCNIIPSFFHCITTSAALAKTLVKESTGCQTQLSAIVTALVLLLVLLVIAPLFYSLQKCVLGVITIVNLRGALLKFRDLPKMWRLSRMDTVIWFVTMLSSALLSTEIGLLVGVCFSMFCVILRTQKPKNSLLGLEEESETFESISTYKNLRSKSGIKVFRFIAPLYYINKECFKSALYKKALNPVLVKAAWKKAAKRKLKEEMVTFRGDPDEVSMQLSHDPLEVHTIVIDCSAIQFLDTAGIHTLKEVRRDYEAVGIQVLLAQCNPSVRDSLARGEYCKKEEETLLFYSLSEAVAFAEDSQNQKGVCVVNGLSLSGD
Description: inhibition of EGCg uptake into stably expressing CHO-K1 cells, LC-MS/MS. It is filed as cell-based. To be noted: 100 μM DIDS 1 h before EGCg; 500 μM EGCg, 30 min (Figure 4 legend; methods give 100 μM EGCg); pH 6.0, 37 °C.

Substrate in data set [2]: O=C(O[C@@H]1Cc2c(O)cc(O)cc2O[C@@H]1c1cc(O)c(O)c(O)c1)c1cc(O)c(O)c(O)c1
Description: EGCg uptake into stably expressing CHO-K1 cells, mock subtracted, LC-MS/MS. It is filed as cell-based, Mus musculus. To be noted: Hanks' balanced salt solution pH 6.0, 37 °C, 30 min, 1-1000 μM EGCg.

As for `O=S(=O)(O)c1cc(N=C=S)ccc1/C=C/c1ccc(N=C=S)cc1S(=O)(=O)O` [4,4′-diisothiocyano-2,2′-stilbenedisulfonic acid], the “inhibition of EGCg uptake into stably expressing CHO-K1 cells, LC-MS/MS” value in data set [1] is “compared with mock cells was nullified in the presence of the DTDST inhibitor DIDS”.

B1: diastrophic dysplasia sulfate transporter (DTDST) (Mus musculus) (protein)
chain: MSSENKEQHDLSPRDLPEEAFGFPSELPLETQRRSGTDLRQSETGHGRRAFRRIHMELREKPDTDIKQFVIRELQKSCQCSAAKVRDGAFDFFPVLRWLPKYDLKKNILGDVMSGLIVGILLVPQSIAYSLLAGQEPIYGLYTSFFASIIYFLFGTSRHISVGIFGILCLMIGEVVDRELHKACPDTDATSSSIAVFSSGCVVVNHTLDGLCDKSCYAIKIGSTVTFMAGVYQVAMGFFQVGFVSVYLSDALLSGFVTGASFTILTSQAKYLLGLSLPRSHGVGSVITTWIHIFRNIRNTNICDLITSLLCLLVLVPSKELNEHFKDKLKAPIPVELIVVVAATLASHFGKLNGNYNSSIAGHIPTGFMPPKAPDWSLIPNVAVDAIAISIIGFAITVSLSEMFAKKHGYTVKANQEMYAIGFCNIIPSFFHCITTSAALAKTLVKESTGCQTQLSAIVTALVLLLVLLVIAPLFYSLQKCVLGVITIVNLRGALLKFRDLPKMWRLSRMDTVIWFVTMLSSALLSTEIGLLVGVCFSMFCVILRTQKPKNSLLGLEEESETFESISTYKNLRSKSGIKVFRFIAPLYYINKECFKSALYKKALNPVLVKAAWKKAAKRKLKEEMVTFRGDPDEVSMQLSHDPLEVHTIVIDCSAIQFLDTAGIHTLKEVRRDYEAVGIQVLLAQCNPSVRDSLARGEYCKKEEETLLFYSLSEAVAFAEDSQNQKGVCVVNGLSLSGD
notes: full open reading frame from mouse ileal epithelial cDNA, C-terminal FLAG tag, stably expressed in CHO-K1 cells (pcDNA3.1(+))
In the case of B1, the Km in data set [2] came out at 576 ± 244 µM.

As a reminder, the Km is the concentration of substrate that gives half-maximal velocity.
